{"source": "patent US8173693B2", "about": "“Benzenesulfonamide derivatives and pharmaceutical composition thereof” (Purzer Pharmaceutical Co., Ltd., priority 2010, dated 2012)", "key": {"[1]": {"settings": "background statement; cited from earlier work"}, "colon 38 cells": {"tested_on": "colon 38 cells", "settings": "Owa et al., J. Med. Chem. 1999, 42, 3789-3799; read-out: IC50 against colon 38 cells; cited from earlier work"}, "KB cells": {"tested_on": "KB cells", "settings": "Owa et al., J. Med. Chem. 1999, 42, 3789-3799; read-out: IC50 against KB cells; cited from earlier work"}, "[2]": {"tested_on": "P388 murine leukemia cells", "settings": "Owa et al., J. Med. Chem. 1999, 42, 3789-3799; read-out: IC50 against P388 murine leukemia cells; cited from earlier work"}, "4T1-Luc cells [3]": {"tested_on": "4T1-Luc cells", "assay": "In vivo evaluation, short-time treatment, mice implanted with 4T1-Luc cells", "settings": "short-time treatment, GM119 25 mg/kg, Taxol 10 mg/kg", "experimental": "GM119 (25 mg/kg) was applied to a mouse implanted with 4T1-Luc cells for a short time, and then Taxol (10 mg/kg) was applied thereto to observe the effect of GM119 on the 4T1-Luc cells.\n(§1) A suspension of 4T1-Luc cells in matrigel was injected into the breast adipocyte to obtain mice implanted with luciferase tumor cells. […] When the size of the tumor cells was achieved to 200-500 mm^3, the mice were divided into 2 groups, and the number of the mice in each group is ≧5. Then, 0 or 25 mg/kg of GM119 was abdominal-injected into the mice for 5 days, wherein GM119 was dissolved in cremophor, and the volume of injection to each mouse is 50 μl. Then, 0 or 10 mg/kg of Taxol was abdominal-injected into the mice for every 2 days until death of the mice. The weight and the number of the mice were recorded every day to analyze the change on the weight and the survival time of the mice. After the drugs were applied to the mice, the size of the tumor cells in the mice was evaluated with bioluminescence every two days."}, "4T1-Luc cells [4]": {"tested_on": "4T1-Luc cells", "assay": "In vivo evaluation, long-time treatment, mice implanted with 4T1-Luc cells", "experimental": "GM119 (25 mg/kg) and Taxol (10 mg/kg) were simultaneously applied to a mouse implanted with 4T1-Luc cells for a long time to observe the effect of GM119 on the 4T1-Luc cells.\nas §1, with “Then, 0/0, 0/25, 10/[…],” for “Then, 0”, “or 10/0” for “or 25”, “of Taxol/GM119” for “of GM119”, “mice every two days until death of the mice,” for “mice for 5 days,”, “GM119 and Taxol were” for “GM119 was”, “μl.” for “μl. Then, 0 or 10 mg/kg of Taxol was abdominal-injected into the mice for every 2 days until death of the mice.”"}}, "note": "Several values for one entry are separate records, joined by “and”; a condition that tells them apart may be missing. Identical values can stand only once.", "data": [{"smiles": "COc1ccc(S(=O)(=O)Nc2cccnc2Nc2ccc(O)cc2)cc1", "note": "[Compound E7010]", "values": [{"measurement": "anti-cancer activity in mice", "setting": "[1]", "value": "shows great effect"}]}, {"smiles": "NS(=O)(=O)c1ccc(S(=O)(=O)Nc2cccc3c(Cl)c[nH]c23)cc1", "note": "[Compound E7070]", "values": [{"measurement": "IC50", "setting": "colon 38 cells", "value": "0.26 µM and 0.3 µM"}, {"measurement": "IC50", "setting": "KB cells", "value": 11.4, "unit": "µM"}, {"measurement": "IC50", "setting": "[2]", "value": 1.2, "unit": "µM"}]}, {"smiles": "CC(=O)O[C@H]1C(=O)[C@@]2(C)[C@H]([C@H](OC(=O)c3ccccc3)[C@]3(O)C[C@H](OC(=O)[C@H](O)[C@@H](NC(=O)c4ccccc4)c4ccccc4)C(C)=C1C3(C)C)[C@]1(OC(C)=O)CO[C@@H]1C[C@@H]2O", "note": "[Taxol, reference compound]", "values": [{"measurement": "growth of the tumor cells (bioluminescence)", "setting": "4T1-Luc cells [3]", "value": "the growth of the tumor cells can be inhibited"}, {"measurement": "survival of the mice", "setting": "4T1-Luc cells [4]; long time: Taxol 10 mg/kg and/or GM119 25 mg/kg abdominal-injected every two days until death, FIG. 3", "value": "the survival of the mice can be increased"}, {"measurement": "growth of the tumor cells (bioluminescence)", "setting": "4T1-Luc cells [4]; long-time treatment", "value": "the growth of the tumor cells can be inhibited"}]}]}
